The text below walks through data of paper PMC11110727, “Exploiting thiol-functionalized benzosiloxaboroles for achieving diverse substitution patterns – synthesis, characterization and biological evaluation of promising antibacterial agents” (RSC Medicinal Chemistry, 2024).

Converted amounts (≈) assume the structure as drawn. Some results are limits rather than exact numbers.

One assay concerns S. aureus ATCC 6538P. The assay is described as follows: Antibacterial activity: MIC/MBC determination and disc-diffusion. The format is cell-based, Staphylococcus aureus. Conditions: S. aureus ATCC 6538P. The procedure:
(§1) Direct antimicrobial activity was determined against the following standard strains: (1) Gram-positive cocci: methicillin-sensitive Staphylococcus aureus ATCC 6538P (MSSA), methicillin-resistant S. aureus subsp. aureus ATCC 43300 (MRSA), S. epidermidis ATCC 12228, Enterococcus faecium ATCC 6057, E. faecalis ATCC 29212, Bacillus subtilis ATCC 6633; (2) Gram-negative bacteria from Enterobacteriales order: Klebsiella pneumoniae ATCC 13883, Escherichia coli ATCC 25922, Enterobacter cloacae DSM 6234, Proteus mirabilis ATCC 12453, Serratia marcescens ATCC 13880; (3) Gram-negative non-fermentative rods: Acinetobacter baumannii ATCC 19606, Pseudomonas aeruginosa ATCC 27853, Stenotrophomonas maltophilia ATCC 12714, S. maltophilia ATCC 13637, Burkholderia cepacia ATCC 25416, Bordetella bronchiseptica ATCC 4617; (4) yeasts: Candida albicans ATCC 90028, C. krusei ATCC 6258, C. parapsilosis ATCC 22019, C. tropicalis (Castellani) Berkhout ATCC 750, C. tropicalis IBA 171, C. guilliermondii IBA 155, and Saccharomyces cerevisiae ATCC 9763. Moreover, 5 clinical strains of methicillin-resistant S. aureus were also included: NMI 664 K, NMI 1576 K, NMI 1712 K, NMI 1991 K, and NMI 2541 K. All strains were stored at −80 °C. Prior to testing, each bacterial strain was subcultured twice on tryptic soy agar TSA (bioMerieux) medium and yeast strains on Sabouraud dextrose agar (bioMerieux) for 24–48 h at 30 °C to ensure viability. The antimicrobial activity was evaluated as previously described[26] by the disc-diffusion method and the MIC determination assays according to the EUCAST (ref. [71] and [72]) and CLSI (ref. [53] and [73]) recommendations. Assessment of bactericidal (MBC) and fungicidal (MFC) activities was performed according to the CLSI recommendations.[54,74] The following reference agents were used: fluconazole (in the case of fungi), linezolid (for Gram-positive bacteria), and nitrofurantoin (for Gram-negative rods). The new benzosiloxaboroles were dissolved in DMSO (Sigma).
On the technique in general: A growth-free zone around the sample is the usual read-out of agar diffusion tests.

For another assay, the system named is E. faecalis ATCC 29212. The assay is described as above. The format is cell-based. As to conditions: Enterococcus faecalis, ATCC29212, E. faecalis ATCC 29212. The procedure:
as §1

The subject of another assay is E. faecium ATCC 6057. Described as above. Format: cell-based. Conditions: Enterococcus faecium, ATCC6057, E. faecium ATCC 6057. The procedure: as §1
Assay [1] has as its system S. aureus ATCC 43300 MRSA. Described as above. Format: cell-based. Conditions: Staphylococcus aureus, S. aureus ATCC 43300 MRSA. The procedure: as §1
For assay [2], the system named is S. epidermidis ATCC 12228. The description is as above. As to conditions: Staphylococcus epidermidis, ATCC12228, S. epidermidis ATCC 12228. Format: cell-based. The procedure: as §1
Assay [3] concerns S. aureus NMI 1576 K MRSA. Kind of assay: Antibacterial activity against clinical MRSA: MIC/MBC. The format is cell-based. As to conditions: Staphylococcus aureus, NMI 1576 K MRSA. As for the experimental part: as §1
Assay [4] has as its system S. aureus NMI 1712 K MRSA. The description is as above. The format is cell-based. Conditions: Staphylococcus aureus, NMI 1712 K MRSA. The procedure:
as §1

Assay [5] has as its system S. aureus NMI 1991 K MRSA. Described as above. The format is cell-based. As to conditions: Staphylococcus aureus, NMI 1991 K MRSA. The procedure: as §1
Assay [6] deals with S. aureus NMI 2541 K MRSA. The assay is described as above. As to conditions: Staphylococcus aureus, NMI 2541 K MRSA. Format: cell-based. The procedure: as §1
The subject of the next assay is S. aureus NMI 664 K MRSA. The assay is described as above. Format: cell-based. Conditions: Staphylococcus aureus, NMI 664 K MRSA. As for the experimental part:
as §1

Assay [7] relates to Human normal lung fibroblasts MRC-5. Kind of assay: MTT-based viability (cytotoxicity) assay. Conditions: Homo sapiens, MRC5, 48 h. The procedure: To evaluate the cytotoxic effect of the tested compounds, an MTT-based assay was performed. […] Moreover, based on available IC50 and MIC (for standard and clinical S. aureus MRSA strains) values, the selectivity index (SI) was calculated for several compounds as the IC50/MIC ratio (Table 5).[60]
MRC-5 pd30 human fibroblasts (ECACC) were cultured in MEME, Minimum Essential Medium Eagle (Merck), supplemented with 10% fetal bovine serum (Merck), 2 mM L-glutamine, antibiotics (100 U mL^−1 penicillin, 100 μg mL^−1 streptomycin, Merck) and 1% non-essential amino acids (Merck). Cells were grown in 75 cm^2 cell culture flasks (Sarstedt), in a humidified atmosphere of CO2/air (5/95%) at 37 °C. MTT-based viability assay was conducted as described previously.[26] Optical densities were measured at 570 nm using a BioTek microplate reader. All measurements were carried out in three replicates and the results expressed as a percent of viable cells versus control cells. […] The selectivity index (SI) was calculated as [drawing 30] , in accordance with previously described protocols.[60]

The target in a further assay is T1, S. aureus MRSA LeuRS (Staphylococcus aureus, UniProt P67513).
T1 construct: The LeuRS gene from MRSA (PW-71) was amplified by PCR; made in house; host or cells: E. coli BL21(DE3)pLys
T1 sequence (P67513 whole entry): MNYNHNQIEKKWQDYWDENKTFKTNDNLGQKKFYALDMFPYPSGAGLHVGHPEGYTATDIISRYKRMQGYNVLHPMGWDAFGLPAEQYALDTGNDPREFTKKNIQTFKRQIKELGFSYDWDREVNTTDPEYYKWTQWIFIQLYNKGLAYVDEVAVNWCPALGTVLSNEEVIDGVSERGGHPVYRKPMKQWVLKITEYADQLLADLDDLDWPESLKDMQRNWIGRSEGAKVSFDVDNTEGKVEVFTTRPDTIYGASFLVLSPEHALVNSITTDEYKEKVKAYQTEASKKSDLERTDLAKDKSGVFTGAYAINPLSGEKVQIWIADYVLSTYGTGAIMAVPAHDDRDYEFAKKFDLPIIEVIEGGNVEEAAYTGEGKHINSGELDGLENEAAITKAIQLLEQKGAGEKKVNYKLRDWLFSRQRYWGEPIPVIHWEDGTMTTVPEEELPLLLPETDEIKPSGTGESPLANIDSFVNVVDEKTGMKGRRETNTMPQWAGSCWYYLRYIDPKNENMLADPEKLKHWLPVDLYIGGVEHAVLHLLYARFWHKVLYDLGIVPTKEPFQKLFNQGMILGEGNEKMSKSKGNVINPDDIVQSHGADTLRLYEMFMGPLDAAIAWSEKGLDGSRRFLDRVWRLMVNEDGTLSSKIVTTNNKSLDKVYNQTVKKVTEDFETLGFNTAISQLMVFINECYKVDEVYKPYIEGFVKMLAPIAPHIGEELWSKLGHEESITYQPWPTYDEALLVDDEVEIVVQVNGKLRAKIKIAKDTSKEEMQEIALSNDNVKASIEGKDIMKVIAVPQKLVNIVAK
Kind of assay: In vitro aminoacylation (enzyme inhibition) assay. Format: biochemical. As to conditions: read-out: residual activity of S. aureus MRSA LeuRS. As for the experimental part: We have undertaken research devoted to determining the most probable mechanism of antibacterial action. […] Considering structural similarity to benzoxaboroles we assumed that benzosiloxaboroles are active through this mechanism. Our working hypothesis was supported by the fact that benzosiloxaboroles are rather bacteriostatic than bactericidal,[26,27] which is consistent with the specificity of the OBORT mechanism. The enzyme inhibition assay was performed for compound 20 as it features high activity against S. aureus MRSA strains and the respective favorable SI = 19.5 (Table 5). […] We obtained S. aureus MRSA LeuRS in the E. coli expression system. From 400 mL culture, approximately 20 mg of 6× His tagged LeuRS (with a molecular mass of 92.3 kDa) was purified to more than 90% homogeneity, which was confirmed by sodium dodecylsulfate-polyacrylamide gel electrophoresis (SDS-PAGE; Fig. S2, ESI ^†). Next, we used an in vitro aminoacylation assay to investigate the ability of 20 to inhibit S. aureus MRSA LeuRS activity consistent with affecting the transfer of the ^14C-radiolabeled leucine to a total tRNA. […] (residual activity 30.8% at 25 μM).
The LeuRS gene from MRSA (PW-71) was amplified by PCR using the following primers: 5′-[…]-3′ and 5′-[…]-3′. The amplified leuRS was digested with BamHI and NotI and ligated into pETDuet-1 vector (Novagen) which carries an N-terminal His tag. After sequencing, the pETDuet1-leuRS plasmid was transformed into E. coli BL21(DE3)pLys cells, which were then grown overnight in 20 mL of Luria–Bertani (LB) medium containing 100 μg mL^−1 ampicillin and 30 μg mL^−1 chloramphenicol. Then the overnight culture was inoculated into 400 mL of Super Broth medium containing ampicillin and chloramphenicol at the same concentration, and the cells were grown until the OD600 reached 0.6. […] The protein concentration in the final solution was 2.86 mg mL^−1 (determined by the Bradford method and bovine serum albumin as a standard).[78] […]

The mark [8] stands for this setting: read-out: MBC (first MBC where Eagle effect).

Regarding `CC(=O)NC[C@H]1CN(c2ccc(N3CCOCC3)c(F)c2)C(=O)O1` [LIN, linezolid, reference compound], in the assay with S. aureus ATCC 6538P (disc-diffusion, — = zone not observed), the “diameter of inhibition zone” value is 25 mm. In addition, the minimal bactericidal concentration (MBC) (usually the smallest concentration meeting the test's criterion for killing) with S. aureus ATCC 6538P (Staphylococcus aureus, ATCC6538P, read-out: MBC (first MBC where Eagle effect)) is more than 128 µg/mL; in the assay with E. faecalis ATCC 29212, more than 128 µg/mL; against E. faecium ATCC 6057 it was more than 128 µg/mL; in [1] (setting [8]), more than 128 µg/mL; in assay [2], more than 128 µg/mL; in [3] (setting [8]) it was more than 128 µg/mL. Also, the minimum bactericidal concentration (MBC) (in assay [4] (setting [8]); in [5] (setting [8]); in [6] (setting [8]); in the assay on S. aureus NMI 664 K MRSA (setting [8])) was more than 128 µg/mL in each case. In addition, the MIC (as a rule, the lowest concentration that inhibits growth of the organism) with S. aureus ATCC 6538P (Staphylococcus aureus, ATCC6538P, read-out: MIC) was 1 µg/mL (≈ 2.96 µM); in the assay with E. faecalis ATCC 29212 (read-out: MIC), 2 µg/mL (≈ 5.93 µM); with E. faecium ATCC 6057 (read-out: MIC), 2 µg/mL (≈ 5.93 µM); in assay [1] (read-out: MIC), 2 µg/mL (≈ 5.93 µM); in assay [2] (read-out: MIC) it was 1 µg/mL (≈ 2.96 µM); in [3] (read-out: MIC), 1 µg/mL (≈ 2.96 µM). The MIC (in assay [4] (read-out: MIC); in assay [5] (read-out: MIC); in [6] (read-out: MIC); in the assay on S. aureus NMI 664 K MRSA (read-out: MIC)) was 1 µg/mL (≈ 2.96 µM) throughout. In assay [7], the IC50 (commonly the concentration that gives 50% inhibition) was more than 400 µg/mL.
Turning to `Nc1ccc(S(=O)(=O)Nc2ccc3c(c2)B(O)OC3)cc1` [PT662, reference compound], on S. aureus MRSA LeuRS, the remaining activity at 25 µM was 30.8%.
